Source: US6716818B2, “Caspase inhibitors and the use thereof” (Cytovia, Inc., priority 1999, dated 2004)
cmk = not defined here

How the values were obtained:
[1] = molecular target: T1, rCaspase 3 (Homo sapiens, UniProt P42574); test: fluorometric caspase-3 enzyme assay (Ac-DEVD-AMC substrate); assay type: biochemical; settings: 2 ng rCaspase 3, 10 μM Ac-DEVD-AMC, 37° C., 30 minutes
T1 construct: purchased PharMingen, a Becton division company, San Diego, Calif
T1 sequence (P42574 29-175 limits assumed): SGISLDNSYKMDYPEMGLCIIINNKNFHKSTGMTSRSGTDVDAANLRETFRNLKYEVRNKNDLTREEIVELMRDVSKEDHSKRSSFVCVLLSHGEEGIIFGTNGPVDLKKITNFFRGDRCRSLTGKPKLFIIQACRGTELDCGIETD
Procedure: Enzyme activity was measured using synthetic peptide substrates attached to a fluorogenic leaving group. Cleavage of the synthetic substrate by the enzyme results in a fluorescent signal which is read in a spectrofluorometer or in a fluorometric microtiter plate reader.
12 concentrations of the testing compound ranged from 30 μM to […] were tested in the enzyme assay. The enzyme reaction was conducted in the presence of 2 ng rCaspase 3 (purchased from PharMingen, a Becton division company, San Diego, Calif.), various concentrations of testing compound, 10 μM caspase 3 substrate Ac-DEVD-AMC (SEQ ID NO:3) (purchased from Quality Controlled Biochemicals, Inc. Hopkinton, Mass.) and caspase buffer (20 mM PIPES, 100 mM NaCl, 10 mM DTT, 1 mM EDTA, 0.1% CHAPS and 10% sucrose, pH 7.2) in a total volume of 100 μl. The enzyme reaction was carried out in a 96-well plate and incubated at 37° C. for 30 minutes. The plate was then read with a fluorescence plate reader (EG&G WALLAG 1420-002) using excitation filter at 355 nm/emission filter at 460 nm. The data was analyzed using GraphPrism software.

[2] = system: dopaminergic neurons grafted to hemiparkinsonian rats; settings: cited from earlier work
[3] = treatment of the embryonic nigral cell suspension

| IC50 [1] | Compound | functional recovery ([2]; hemiparkinsonian rats) | DNA fragmentation and apoptosis in transplants [2, 3] | survival of dopaminergic neurons grafted to hemiparkinsonian rats [2, 3] |
| --- | --- | --- | --- | --- |
| 72 nM | CC(C)C(NC(=O)OCC1CCCCC1)C(=O)NC(CC(=O)O)C(=O)CF (stereo not drawn) [Cyclohexylmethoxycarbonyl-Val-Asp-fmk] | – | – | – |
| – | Ac-YVAD-cmk (reading uncertain; also: printed as Ac-YVAD-cmk) | substantially improved functional recovery | mitigated DNA fragmentation and reduced apoptosis in transplants | increased survival of dopaminergic neurons |
| 58 nM | CCOC(=O)NC(C(=O)NC(CC(=O)O)C(=O)CF)C(C)C (stereo not drawn) [Ethoxycarbonyl-Val-Asp-fmk] | – | – | – |
